Measurements taken from patent EP4603105A1, “PHARMACEUTICAL COMPOSITION CONTAINING CYCLIC COMPOUND HAVING SELECTIVE KRAS INHIBITORY EFFECT AGAINST HRAS AND NRAS” (CHUGAI SEIYAKU KABUSHIKI KAISHA, priority 2022, dated 2024).
*1 amine or outer side, *2 acyl side, *3 side chain or, on linkers, in order; H or OH if unused. Where a SMILES comes first, the peptide text is derived from it. Bridges are numbered along the chain shown (N, C = ends). [ ]: non-standard residue; d: D form. The star is where a group is joined. hPhe(3-Cl-4-CF3) = N[C@@H](CCc1ccc(C(F)(F)F)c(Cl)c1)C(=O)O; NPrPhe(4-CF3) = CCCN[C@@H](Cc1ccc(C(F)(F)F)cc1)C(=O)O; X14 = COCCN([C@@H](Cc1ccc(C)cc1)C(=O)[*:2])[*:1]; NEtPhe(4-Me) = CCN[C@@H](Cc1ccc(C)cc1)C(=O)O; NMeGly(cPent) = CN[C@H](C(=O)O)C1CCCC1; NMeD = CN[C@@H](CC(=O)O)C(=O)O; NMeL = CN[C@@H](CC(C)C)C(=O)O; Morpholide = C1CN(*)CCO1; NMeA = CN[C@@H](C)C(=O)O; Ac5c = NC1(C(=O)O)CCCC1; Aze = O=C(O)[C@@H]1CCN1; Sar = CNCC(=O)O

Legend:
HRAS wild-type protein = HRAS wild-type protein (Homo sapiens, UniProt P01112); assay: Binding to HRAS by surface plasmon resonance (SPR), KD and KD ratio to KRAS
HRAS wild-type protein, sequence (P01112 whole entry): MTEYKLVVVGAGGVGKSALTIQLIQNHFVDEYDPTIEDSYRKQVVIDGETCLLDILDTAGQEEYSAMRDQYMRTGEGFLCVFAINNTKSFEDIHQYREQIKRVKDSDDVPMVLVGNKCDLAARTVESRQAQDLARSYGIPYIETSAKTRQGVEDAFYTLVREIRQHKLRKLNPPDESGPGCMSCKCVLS
Summary of the method: (§1)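 Each cycle, GDP-bound biotin-Avi RAS was captured (~100–300 RU), compound concentrations were injected low to high for 75 s each at 100 µL/min, then the chip was regenerated. Buffer: HBS pH 7.4, 10 mM MgCl2, 10 µM GDP, 1 mM DTT, 4% DMSO; 30°C. KD from a 1:1 binding model.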

[1] = test system: human lung cancer strain NCI-H441; type: cell-based
Summary of the method: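 Signal came from […] measured per well once the reagent was added. Beforehand, cells were cultured at 37°C and 5% carbon dioxide on a compound series serially diluted in dimethyl sulfoxide.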

[2] = target: GDP-bound NRAS wild-type protein (Homo sapiens, UniProt P01111); assay: Binding to NRAS by surface plasmon resonance (SPR), KD and KD ratio to KRAS
GDP-bound NRAS wild-type protein, sequence (P01111 whole entry): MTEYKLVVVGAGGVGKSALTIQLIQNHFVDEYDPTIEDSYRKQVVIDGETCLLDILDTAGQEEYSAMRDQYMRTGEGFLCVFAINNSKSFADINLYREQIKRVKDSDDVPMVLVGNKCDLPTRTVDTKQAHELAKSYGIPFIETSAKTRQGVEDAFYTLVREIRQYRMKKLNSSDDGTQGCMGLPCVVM
Summary of the method: as §1

[3] = ratio of KD for HRAS wild-type protein to KD for KRAS
[4] = ratio of KD for GDP-bound NRAS wild-type protein to KD for KRAS
[5] = ratio of the KD value with respect to HRAS wild-type protein to the KD value with respect to KRAS
[6] = ratio of the KD value with respect to GDP-bound NRAS wild-type protein to the KD value with respect to KRAS

CCO[C@@H]1C[C@H]2C(=O)NC3(CCC3)C(=O)N(C)[C@@H](C(CC)CC)C(=O)N(C)[C@H](C(=O)N3CCCCC3)CC(=O)N(C)[C@H]3CCCC/C=C/c4ccc(cc4)C[C@@H](C(=O)N(C)CC(=O)N[C@@H](CCc4ccc(Cl)c(Cl)c4)C(=O)N2C1)N1CC/C=C\C[C@@H](C1=O)N(C)C(=O)CN(C)C(=O)[C@H]([C@@H](C)CC)NC3=O [PP3046]
HRAS /KRAS (HRAS wild-type protein; [3]): A (a compound having 10 or more and less than 20 is denoted as A)
IC50 [1]: 16.7 nM
NRAS /KRAS [2, 4]: AA (a compound having 20 or more is denoted as AA)

CCCOC[C@H]1C(=O)N[C@@H]([C@@H](C)CC)C(=O)N2CCC[C@H]2C(=O)N(C)[C@H]2C/C=C\CCN(C2=O)[C@@H](Cc2ccc(C(F)(F)F)cc2)C(=O)N(C)CC(=O)N[C@@H](CCc2ccc(C(F)(F)F)c(OC)c2)C(=O)N2C[C@H](OCC)C[C@H]2C(=O)N(C)C2(CCC2)C(=O)N(C)[C@@H](C2CCCC2)C(=O)N(C)[C@H](C(=O)N(C)C)CC(=O)N1C [PP2322]
HRAS /KRAS (HRAS wild-type protein; [5]): B (a compound having 3 or more and less than 10 is denoted as B)
IC50 [1]: 5.8 nM
NRAS /KRAS [2, 6]: A (a compound having 10 or more and less than 20 is denoted as A)

CCO[C@@H]1C[C@H]2C(=O)NC3(CC(C)(C)C3)C(=O)N(C)[C@@H](C(CC)CC)C(=O)N(C)[C@H](C(=O)N3CCCCC3)CC(=O)N(C)[C@H]3CCC/C=C/c4ccc(cc4)C[C@@H](C(=O)N(C)CC(=O)N[C@@H](CCc4cc(F)c(C(F)(F)F)c(F)c4)C(=O)N2C1)N1CC/C=C\C[C@@H](C1=O)N(C)C(=O)CN(C)C(=O)[C@H]([C@@H](C)CC)NC3=O [PP2952]
HRAS /KRAS (HRAS wild-type protein; [3]): A (a compound having 10 or more and less than 20 is denoted as A)
IC50 [1]: 45 nM
NRAS /KRAS [2, 4]: AA (a compound having 20 or more is denoted as AA)

CCCO[C@@H]1C[C@H]2C(=O)NC3(CC(C)(C)C3)C(=O)N(C)[C@@H](C(CC)CC)C(=O)N(C)[C@H](C(=O)N(C)C)CC(=O)N(C)[C@H]3CCCc4ccc(cc4)C[C@@H](C(=O)N(C)CC(=O)N[C@@H](CCc4ccc(C(F)(F)F)c(OC)c4)C(=O)N2C1)N1CC/C=C\C[C@@H](C1=O)N(C)C(=O)CN(C)C(=O)[C@H]([C@@H](C)CC)NC3=O [PP3063]
HRAS /KRAS (HRAS wild-type protein; [3]): B (a compound having 3 or more and less than 10 is denoted as B)
IC50 [1]: 32.2 nM
NRAS /KRAS [2, 4]: B (a compound having 3 or more and less than 10 is denoted as B)

CCO[C@@H]1C[C@H]2C(=O)NC3(CCCC3)C(=O)N(C)[C@@H](C3CCCC3)C(=O)N(C)[C@H](C(=O)N(C)C)CC(=O)N(C)[C@@H](CC)C(=O)N[C@@H]([C@@H](C)CC)C(=O)N(C)CC(=O)N(C)[C@H]3C/C=C\CCN(C3=O)[C@@H](Cc3ccc(C(F)(F)F)cc3)C(=O)N(C)CC(=O)N[C@@H](CCc3cc(C)c(Cl)c(C)c3)C(=O)N2C1 [PP1823]
HRAS /KRAS (HRAS wild-type protein; ratio of KD value for HRAS wild-type protein to KD value for KRAS (SPR)): A (a compound having 10 or more and less than 20 is denoted as A)
IC50 [1]: 55.9 nM
NRAS /KRAS ([2]; ratio of KD value for GDP-bound NRAS wild-type protein to KD value for KRAS (SPR)): A (a compound having 10 or more and less than 20 is denoted as A)

CCCN(C)C(=O)[C@@H]1CC(=O)N(C)[C@@H](COCC)C(=O)N[C@@H]([C@@H](C)CC)C(=O)N(C)CC(=O)N(C)[C@H]2C/C=C\CCN(C2=O)[C@@H](Cc2ccc(C(F)(F)F)cc2)C(=O)N(C)CC(=O)N[C@@H](CCc2cc(F)c(C(F)(F)F)c(F)c2)C(=O)N2C[C@@H](C)C[C@H]2C(=O)NC2(CC(C)(C)C2)C(=O)N(C)[C@@H](C2CCCC2)C(=O)N1C [PP2041]
HRAS /KRAS (HRAS wild-type protein; [5]): A (a compound having 10 or more and less than 20 is denoted as A)
IC50 [1]: 7.7 nM
NRAS /KRAS [2, 6]: A (a compound having 10 or more and less than 20 is denoted as A)

CC[C@H](C)[C@@H]1NC(=O)[C@H](CC(C)C)N(C)C(=O)C[C@@H](C(=O)N2CCOCC2)N(C)C(=O)[C@H](C2CCCC2)N(C)C(=O)C2(CCCC2)NC(=O)[C@@H]2CCCN2C(=O)[C@H](CCc2ccc(C(F)(F)F)c(Cl)c2)NC(=O)CN(C)C(=O)[C@H](Cc2ccc(C)cc2)N(CC)C(=O)CN(C)C(=O)CN(C)C1=O [PP0022] ([NMeL]I[Sar][Sar][NEtPhe(4-Me)][Sar][hPhe(3-Cl-4-CF3)]P[Ac5c][NMeGly(cPent)][NMeD]-Morpholide; lactam N-11)
HRAS /KRAS (HRAS wild-type protein; [3]): C (A compound having a KD ratio of 0.1 or more and less than 3 is denoted as C)
IC50 [1]: 14.4 nM
NRAS /KRAS [2, 4]: B (a compound having 3 or more and less than 10 is denoted as B)

CCC[C@H]1C(=O)N[C@@H]([C@@H](C)CC)C(=O)N(C)CC(=O)N(C)[C@H]2C/C=C\CCN(C2=O)[C@@H](Cc2ccc(C(F)(F)F)cc2)C(=O)N(C)CC(=O)N[C@@H](CCc2ccc(C(F)(F)F)c(OC)c2)C(=O)N2C[C@H](OCC)C[C@H]2C(=O)NC2(CC(C)(C)C2)C(=O)N(C)[C@@H](C(CC)CC)C(=O)N(C)[C@H](C(=O)N(C)C)CC(=O)N1C [PP2160]
HRAS /KRAS (HRAS wild-type protein; [5]): A (a compound having 10 or more and less than 20 is denoted as A)
IC50 [1]: 5.4 nM
NRAS /KRAS [2, 6]: A (a compound having 10 or more and less than 20 is denoted as A)

CCCN1C(=O)CN(C)C(=O)CN(C)C(=O)[C@H]([C@@H](C)CC)NC(=O)[C@H](CC(C)C)N(C)C(=O)C[C@@H](C(=O)N2CCOCC2)N(C)C(=O)[C@H](C2CCCC2)N(C)C(=O)[C@@H](C)NC(=O)[C@@H]2CCCN2C(=O)[C@H](CCc2ccc(C(F)(F)F)c(Cl)c2)NC(=O)CN(C)C(=O)[C@@H]1Cc1ccc(C(F)(F)F)cc1 [PP0150] ([NMeL]I[Sar][Sar][NPrPhe(4-CF3)][Sar][hPhe(3-Cl-4-CF3)]P[dA][NMeGly(cPent)][NMeD]-Morpholide; lactam N-11)
HRAS /KRAS (HRAS wild-type protein; [3]): C (A compound having a KD ratio of 0.1 or more and less than 3 is denoted as C)
IC50 [1]: 49.1 nM
NRAS /KRAS [2, 4]: B (a compound having 3 or more and less than 10 is denoted as B)

CCOC1CC2C(=O)NC3(CCC3)C(=O)N(C)C(C(C)CC)C(=O)N(C)[C@H](C(=O)N3CCOCC3)CC(=O)N(C)[C@@H](CC(C)C)C(=O)N[C@@H]([C@@H](C)CC)C(=O)N(C)CC(=O)N(C)[C@H]3CCCCN(C3=O)[C@@H](Cc3ccc(C(F)(F)F)cc3)C(=O)N(C)CC(=O)N[C@@H](CCc3cc(F)c(C(F)(F)F)c(F)c3)C(=O)N2C1 (stereo partly drawn) [PP0812]
HRAS /KRAS (HRAS wild-type protein; [3]): B (a compound having 3 or more and less than 10 is denoted as B)
IC50 [1]: 17.9 nM
NRAS /KRAS [2, 4]: B (a compound having 3 or more and less than 10 is denoted as B)

CC[C@H](C)[C@@H]1NC(=O)[C@H](CC(C)C)N(C)C(=O)C[C@@H](C(=O)N2CCOCC2)N(C)C(=O)[C@H](C2CCCC2)N(C)C(=O)C2(CCCC2)NC(=O)[C@@H]2CCCN2C(=O)[C@H](CCc2ccc(C(F)(F)F)c(Cl)c2)NC(=O)CN(C)C(=O)[C@H](Cc2ccc(C)cc2)N(CCOC)C(=O)[C@@H]2CCN2C(=O)[C@H](C)N(C)C1=O [PP0092] ([NMeL]I[NMeA][Aze][X14][Sar][hPhe(3-Cl-4-CF3)]P[Ac5c][NMeGly(cPent)][NMeD]-Morpholide; lactam N-11)
HRAS /KRAS (HRAS wild-type protein; [3]): C (A compound having a KD ratio of 0.1 or more and less than 3 is denoted as C)
IC50 [1]: 3.7 nM
NRAS /KRAS [2, 4]: C (A compound having a KD ratio of 0.1 or more and less than 3 is denoted as C)

CCO[C@@H]1C[C@H]2C(=O)NC3(CCC3)C(=O)N(C)[C@@H](C3CCCC3)C(=O)N(C)[C@H](C(=O)N(C)C)CC(=O)N(C)[C@@H](CC(F)(F)F)C(=O)N[C@@H]([C@@H](C)CC)C(=O)N(C)CC(=O)N(C)[C@H]3C/C=C\CCN(C3=O)[C@@H](Cc3ccc(C(F)(F)F)cc3)C(=O)N(C)CC(=O)N[C@@H](CCc3cc(F)c(C(F)(F)F)c(F)c3)C(=O)N2C1 [PP1124]
HRAS /KRAS (HRAS wild-type protein; [3]): B (a compound having 3 or more and less than 10 is denoted as B)
IC50 [1]: 12.4 nM
NRAS /KRAS [2, 4]: A (a compound having 10 or more and less than 20 is denoted as A)

CCO[C@@H]1C[C@H]2C(=O)NC3(CCC3)C(=O)N(C)[C@@H](C3CCCC3)C(=O)N(C)[C@H](C(=O)N3CCOCC3)CC(=O)N(C)[C@@H](CC(C)C)C(=O)N[C@@H]([C@@H](C)CC)C(=O)N(C)CC(=O)N(C)[C@H]3CCCCCN(C3=O)[C@@H](Cc3ccc(F)cc3OC)C(=O)N(C)CC(=O)N[C@@H](CCc3cc(F)c(C(F)(F)F)c(F)c3)C(=O)N2C1 [PP0924]
HRAS /KRAS (HRAS wild-type protein; [3]): B (a compound having 3 or more and less than 10 is denoted as B)
IC50 [1]: 92 nM
NRAS /KRAS [2, 4]: B (a compound having 3 or more and less than 10 is denoted as B)

CCO[C@@H]1C[C@H]2C(=O)NC3(CC(C)(C)C3)C(=O)N(C)[C@@H](C(CC)CC)C(=O)N(C)[C@H](C(=O)N3CCCC3)CC(=O)N(C)[C@@H](C)C(=O)N[C@@H]([C@@H](C)CC)C(=O)N(C)CC(=O)N(C)[C@H]3C/C=C\CCN(C3=O)[C@@H](Cc3ccc(C(F)(F)F)cc3)C(=O)N(C)CC(=O)N[C@@H](CCc3ccc(C(F)(F)F)c(OC)c3)C(=O)N2C1 [PP2163]
HRAS /KRAS (HRAS wild-type protein; [5]): A (a compound having 10 or more and less than 20 is denoted as A)
IC50 [1]: 18.2 nM
NRAS /KRAS [2, 6]: A (a compound having 10 or more and less than 20 is denoted as A)
